From patent EP4559911A1, “NOVEL HETEROCYCLIC COMPOUND AND PHARMACEUTICAL COMPOSITION FOR INHIBITING AUTOTAXIN COMPRISING THE SAME” (Nextgen Bioscience Co., Ltd., priority 2022, dated 2024)

Each compound was assayed against human Autotaxin protein (Homo sapiens, UniProt Q13822) (assay: Evaluation of the inhibitory activity against human Autotaxin protein (18:1 LysoPC substrate, choline assay kit, absorbance at 570 nm)). Conditions: compound at 500nM; 2 hours at 37 °C; % inhibition = (1 - absorbance test group / absorbance control group) X 100.
Assay type: biochemical
Summary of the method: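 Human autotaxin (20 μL of 240 nM stock) was reacted with sonicated 18:1 LysoPC (10 μL of 360 μM stock) in Tris pH 8.0 buffer with BSA for 2 h at 37 °C, using 6 compound concentrations from 5-fold dilution. Released choline was detected via choline oxidase/dye probe (30 min), read as absorbance at 570 nm. % inhibition was calculated relative to control.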
Compound `CC(C)(C)C(=O)OCn1cc(C2CN(c3nnc(-c4cnc(NC5Cc6nccnc6C5)nc4)o3)C2)nn1` [Example 72, (4-(1-(5-(2-((6,7-dihydro-5H-cyclopenta[b]pyrazin-6-yl)amino)pyrimidin-5-yl)-1,3,4-oxadiazol-2-yl)azetidin-3-yl)-1H-1,2,3-triazol-1-yl)methyl pivalate] has an inhibition at 0.5 µM of 3.1%.
Work on `CC(C)(C)C(=O)OCn1cc(C2CN(c3nnc(-c4cnc(NC5Cc6cccnc6C5)nc4)o3)C2)nn1` (stereo not shown) [Example 73, (4-(1-(5-(2-((6,7-dihydro-5H-cyclopenta[b]pyridin-6-yl)amino)pyrimidin-5-yl)-1,3,4-oxadiazol-2-yl)azetidin-3-yl)-1H-1,2,3-triazol-1-yl)methyl pivalate] yielded an inhibition at 0.5 µM of 1.2%.
With `c1cnc2c(n1)CC(Nc1ncc(-c3nnc(N4CC(c5c[nH]nn5)C4)o3)cn1)C2` [Example 74, N-(5-(5-(3-(1H-1,2,3-triazol-4-yl)azetidin-1-yl)-1,3,4-oxadiazol-2-yl)pyrimidin-2-yl)-6,7-dihydro-5H-cyclopenta[b]pyrazin-6-amine] the inhibition at 0.5 µM was 7.1%.
Work on `Cc1[nH]nnc1C1CN(c2nnc(-c3cnc(NC4Cc5cc(F)c(F)cc5C4)nc3)o2)C1` [Example 75, N-(5,6-difluoro-2,3-dihydro-1H-inden-2-yl)-5-(5-(3-(5-methyl-1H-1,2,3-triazol-4-yl)azetidin-1-yl)-1,3,4-oxadiazol-2-yl)pyrimidin-2-amine] yielded an inhibition at 0.5 µM of 84.6%.
Work on `Fc1cc2c(cc1F)CC(Nc1ncc(-c3nnc(N4CC(c5c[nH]cn5)C4)o3)cn1)C2` [Example 76, 5-(5-(3-(1H-imidazol-4-yl)azetidin-1-yl)-1,3,4-oxadiazol-2-yl)-N-(5,6-difluoro-2,3-dihydro-1H-inden-2-yl)pyrimidin-2-amine] yielded an inhibition at 0.5 µM of 64%.
With `c1cnc2c(c1)CC(Nc1ncc(-c3nnc(N4CC(c5c[nH]nn5)C4)o3)cn1)C2` (stereo not shown) [Example 77, N-(5-(5-(3-(1H-1,2,3-triazol-4-yl)azetidin-1-yl)-1,3,4-oxadiazol-2-yl)pyrimidin-2-yl)-6,7-dihydro-5H-cyclopenta[b]pyridin-6-amine] the inhibition at 0.5 µM was 43.7%.
In the case of `CC1(c2c[nH]nn2)CN(C(=O)/C=C/c2cnc(NC3Cc4cc(F)c(F)cc4C3)nc2)C1` [Example 78, (E)-3-(2-((5,6-difluoro-2,3-dihydro-1H-inden-2-yl)amino)pyrimidin-5-yl)-1-(3-methyl-3-(1H-1,2,3-triazol-4-yl)azetidin-1-yl)prop-2-en-1-one], the inhibition at 0.5 µM is reported as 99.1%.
`Fc1cc2c(cc1F)CC(Nc1ncc(-c3nnc(N4CC(n5cncn5)C4)o3)cn1)C2` [Example 79, 5-(5-(3-(1H-1,2,4-triazol-1-yl)azetidin-1-yl)-1,3,4-oxadiazol-2-yl)-N-(5,6-difluoro-2,3-dihydro-1H-inden-2-yl)pyrimidin-2-amine] was tested, and the inhibition at 0.5 µM was 24.7%.
In the case of `Cc1ncn(C2CN(c3nnc(-c4cnc(NC5Cc6cc(F)c(F)cc6C5)nc4)o3)C2)n1` [Example 80, N-(5,6-difluoro-2,3-dihydro-1H-inden-2-yl)-5-(5-(3-(3-methyl-1H-1,2,4-triazol-1-yl)azetidin-1-yl)-1,3,4-oxadiazol-2-yl)pyrimidin-2-amine], the inhibition at 0.5 µM is reported as 10.4%.
Compound `Fc1cc2c(cc1F)CC(Nc1ncc(-c3nnc(N4CC(N5CCOCC5)C4)o3)cn1)C2` [Example 81, N-(5,6-difluoro-2,3-dihydro-1H-inden-2-yl)-5-(5-(3-morpholinoazetidin-1-yl)-1,3,4-oxadiazol-2-yl)pyrimidin-2-amine] has an inhibition at 0.5 µM of 7%.
`CC1(c2c[nH]nn2)CN(C(=O)/C=C/c2cnc(NC3Cc4ccccc4C3)nc2)C1` [Example 82, (E)-3-(2-((2,3-dihydro-1H-inden-2-yl)amino)pyrimidin-5-yl)-1-(3-methyl-3-(1H-1,2,3-triazol-4-yl)azetidin-1-yl)prop-2-en-1-one] gave an inhibition at 0.5 µM of 98%.
In the case of `FC1(c2c[nH]nn2)CN(c2nnc(-c3cnc(NC4Cc5ccccc5C4)nc3)o2)C1` [Example 83, N-(2,3-dihydro-1H-inden-2-yl)-5-(5-(3-fluoro-3-(1H-1,2,3-triazol-4-yl)azetidin-1-yl)-1,3,4-oxadiazol-2-yl)pyrimidin-2-amine], the inhibition at 0.5 µM is reported as 81.6%.
With `CC(C)(C)C(=O)OCn1cc(C2CN(c3nnc(-c4cnc(NC5Cc6ccncc6C5)nc4)o3)C2)nn1` (stereo not shown) [Example 84, (4-(1-(5-(2-((6,7-dihydro-5H-cyclopenta[c]pyridin-6-yl)amino)pyrimidin-5-yl)-1,3,4-oxadiazol-2-yl)azetidin-3-yl)-1H-1,2,3-triazol-1-yl)methyl pivalate] the inhibition at 0.5 µM was 1.1%.
`c1cc2c(cn1)CC(Nc1ncc(-c3nnc(N4CC(c5c[nH]nn5)C4)o3)cn1)C2` (stereo not shown) [Example 85, N-(5-(5-(3-(1H-1,2,3-triazol-4-yl)azetidin-1-yl)-1,3,4-oxadiazol-2-yl)pyrimidin-2-yl)-6,7-dihydro-5H-cyclopenta[c]pyridin-6-amine] was tested, and the inhibition at 0.5 µM was 19.8%.
Compound `CC(C)(C)C(=O)OCn1cc(C2CN(c3nnc(-c4cnc(NCc5ccc6c(c5)OCO6)nc4)o3)C2)nn1` [Example 86, (4-(1-(5-(2-((benzo[d][1,3]dioxol-5-ylmethyl)amino)pyrimidin-5-yl)-1,3,4-oxadiazol-2-yl)azetidin-3-yl)-1H-1,2,3-triazol-1-yl)methyl pivalate] has an inhibition at 0.5 µM of 2.8%.
`c1cc2c(cc1CNc1ncc(-c3nnc(N4CC(c5c[nH]nn5)C4)o3)cn1)OCO2` [Example 87, 5-(5-(3-(1H-1,2,3-triazol-4-yl)azetidin-1-yl)-1,3,4-oxadiazol-2-yl)-N-(benzo[d][1,3]dioxol-5-ylmethyl)pyrimidin-2-amine] was tested, and the inhibition at 0.5 µM was 18%.
`CN(c1ncc(-c2nnc(N3CC(c4c[nH]nn4)C3)o2)cn1)C1Cc2cc(F)c(F)cc2C1` [Example 88, 5-(5-(3-(1H-1,2,3-triazol-4-yl)azetidin-1-yl)-1,3,4-oxadiazol-2-yl)-N-(5,6-difluoro-2,3-dihydro-1H-inden-2-yl)-N-methylpyrimidin-2-amine] gave an inhibition at 0.5 µM of 10.5%.
With `FC1(c2c[nH]nn2)CN(c2nnc(-c3cnc(NC4Cc5ccc(Br)cc5C4)nc3)o2)C1` (stereo not shown) [Example 89, N-(5-bromo-2,3-dihydro-1H-inden-2-yl)-5-(5-(3-fluoro-3-(1H-1,2,3-triazol-4-yl)azetidin-1-yl)-1,3,4-oxadiazol-2-yl)pyrimidin-2-amine] the inhibition at 0.5 µM was 84.9%.
Compound `O=C(CCCc1nnc(NC2Cc3cc(F)c(F)cc3C2)o1)N1CC(c2c[nH]nn2)C1` [Example 90, 1-(3-(1H-1,2,3-triazol-4-yl)azetidin-1-yl)-4-(5-((5,6-difluoro-2,3-dihydro-1H-inden-2-yl)amino)-1,3,4-oxadiazol-2-yl)butan-1-one] has an inhibition at 0.5 µM of 17.9%.
In the case of `Clc1ccc2c(c1)CC(Nc1ncc(-c3nnc(N4CC(c5c[nH]nn5)C4)o3)cn1)C2` (stereo not shown) [Example 91, 5-(5-(3-(1H-1,2,3-triazol-4-yl)azetidin-1-yl)-1,3,4-oxadiazol-2-yl)-N-(5-chloro-2,3-dihydro-1H-inden-2-yl)pyrimidin-2-amine], the inhibition at 0.5 µM is reported as 97.1%.
Compound `Clc1ccc(CCNc2ncc(-c3nnc(N4CCC(c5c[nH]nn5)C4)o3)cn2)cc1` (stereo not shown) [Example 92, 5-(5-(3-(1H-1,2,3-triazol-4-yl)pyrrolidin-1-yl)-1,3,4-oxadiazol-2-yl)-N-(4-chlorophenethyl)pyrimidin-2-amine] has an inhibition at 0.5 µM of 85.5%.
`Clc1ccc(CCNc2ncc(-c3nnc(N4CC(c5c[nH]nn5)C4)o3)cn2)cc1` [Example 93, 5-(5-(3-(1H-1,2,3-triazol-4-yl)azetidin-1-yl)-1,3,4-oxadiazol-2-yl)-N-(4-chlorophenethyl)pyrimidin-2-amine] was tested, and the inhibition at 0.5 µM was 89.3%.
